# pIC50: −log10 of the molar value.
# Tested on: endothelial tube formation in co-cultures of ECFCs and ADSCs treated with VEGF
# Assay: cells
# Format: cell-based, human
# Settings: not given
row,Structure (SMILES),VEGF_ADSC\ECFC Angio CD31 TubeArea IC50/EC50
1,CCCCCCCCCCCCCCCCCC[N+](C)(C)CCC[Si](OC)(OC)OC.[Cl-] [NCGC00166112-02],> 10 µM
2,Cc1c(O)cc2c(c1C)O[C@](C)(CCC[C@H](C)CCC[C@H](C)CCCC(C)C)CC2 [NCGC00185764-03],> 10 µM

# Same assay, conditions: read-out: VEGF_ADSC\ECFC Angio CD31 TubeArea summarized IC50
row,Structure (SMILES),pIC50
1,CC(C)=CCC/C(C)=C/CC/C(C)=C/CC/C=C(\C)CC/C=C(\C)CCC=C(C)C [NCGC00181323-02],< 5.00
2,CCCCCCCCCCCCCCCC(=O)OC/C=C(C)/C=C/C=C(C)/C=C/C1=C(C)CCCC1(C)C [NCGC00095056-04],< 5.00
3,CC(=O)NC(=O)c1ccccc1O [NCGC00160362-02],< 5.00

# Tested on: DLD-1
# Assay: cells
# Format: cell-based
# Settings: assay number 23; basal
row,Structure (SMILES),Basal_Viability ATP DLD-1 IC50/EC50
1,Cc1c(O)cc2c(c1C)O[C@](C)(CCC[C@H](C)CCC[C@H](C)CCCC(C)C)CC2 [NCGC00185764-03],> 20 µM

# Same assay, conditions: assay number 23; basal; read-out: Basal_Viability ATP DLD-1 summarized IC50
row,Structure (SMILES),pIC50
1,CC(C)=CCC/C(C)=C/CC/C(C)=C/CC/C=C(\C)CC/C=C(\C)CCC=C(C)C [NCGC00181323-02],< 4.70
2,CCCCCCCCCCCCCCCC(=O)OC/C=C(C)/C=C/C=C(C)/C=C/C1=C(C)CCCC1(C)C [NCGC00095056-04],< 4.70
3,CC(=O)NC(=O)c1ccccc1O [NCGC00160362-02],< 4.70

# Same assay, conditions: assay number 23; concentration response
row,Structure (SMILES),Basal_Viability ATP DLD-1 IC50/EC50
1,CCCCCCCCCCCCCCCCCC[N+](C)(C)CCC[Si](OC)(OC)OC.[Cl-] [NCGC00166112-02],> 20 µM

# Tested on: SW480
# Assay: cells
# Format: cell-based
# Settings: assay number 24; basal
row,Structure (SMILES),Basal_Viability ATP SW480 IC50/EC50
1,Cc1c(O)cc2c(c1C)O[C@](C)(CCC[C@H](C)CCC[C@H](C)CCCC(C)C)CC2 [NCGC00185764-03],> 20 µM

# Same assay, conditions: assay number 24; basal; read-out: Basal_Viability ATP SW480 summarized IC50
row,Structure (SMILES),pIC50
1,CC(C)=CCC/C(C)=C/CC/C(C)=C/CC/C=C(\C)CC/C=C(\C)CCC=C(C)C [NCGC00181323-02],< 4.70
2,CCCCCCCCCCCCCCCC(=O)OC/C=C(C)/C=C/C=C(C)/C=C/C1=C(C)CCCC1(C)C [NCGC00095056-04],< 4.70
3,CC(=O)NC(=O)c1ccccc1O [NCGC00160362-02],< 4.70

# Same assay, conditions: assay number 24; concentration response
row,Structure (SMILES),Basal_Viability ATP SW480 IC50/EC50
1,CCCCCCCCCCCCCCCCCC[N+](C)(C)CCC[Si](OC)(OC)OC.[Cl-] [NCGC00166112-02],> 20 µM

# Tested on: HCT116
# Assay: cells
# Format: cell-based
# Settings: assay number 25; basal
row,Structure (SMILES),Basal_Viability ATP HCT116 IC50/EC50
1,Cc1c(O)cc2c(c1C)O[C@](C)(CCC[C@H](C)CCC[C@H](C)CCCC(C)C)CC2 [NCGC00185764-03],> 20 µM

# Same assay, conditions: assay number 25; basal; concentration response
row,Structure (SMILES),Basal_Viability ATP HCT116 IC50/EC50
1,CCCCCCCCCCCCCCCCCC[N+](C)(C)CCC[Si](OC)(OC)OC.[Cl-] [NCGC00166112-02],> 20 µM

# Same assay, conditions: assay number 25; basal; read-out: Basal_Viability ATP HCT116 summarized IC50
row,Structure (SMILES),pIC50
1,CC(C)=CCC/C(C)=C/CC/C(C)=C/CC/C=C(\C)CC/C=C(\C)CCC=C(C)C [NCGC00181323-02],< 4.70
2,CCCCCCCCCCCCCCCC(=O)OC/C=C(C)/C=C/C=C(C)/C=C/C1=C(C)CCCC1(C)C [NCGC00095056-04],< 4.70
3,CC(=O)NC(=O)c1ccccc1O [NCGC00160362-02],< 4.70

# Tested on: HCT116 cells treated with a GSK3β inhibitor
# Assay: cells
# Format: cell-based
# Settings: assay number 26; GSK3b inhibitor pretreated
row,Structure (SMILES),GSK3b inh pretreated_Viability ATP HCT116 IC50/EC50
1,Cc1c(O)cc2c(c1C)O[C@](C)(CCC[C@H](C)CCC[C@H](C)CCCC(C)C)CC2 [NCGC00185764-03],> 20 µM

# Same assay, conditions: assay number 26; GSK3b inhibitor pretreated; concentration response
row,Structure (SMILES),GSK3b inh pretreated_Viability ATP HCT116 IC50/EC50
1,CCCCCCCCCCCCCCCCCC[N+](C)(C)CCC[Si](OC)(OC)OC.[Cl-] [NCGC00166112-02],> 20 µM

# Same assay, conditions: assay number 26; GSK3b inhibitor pretreated; read-out: GSK3b inh pretreated_Viability ATP HCT116 summarized IC50
row,Structure (SMILES),pIC50
1,CC(C)=CCC/C(C)=C/CC/C(C)=C/CC/C=C(\C)CC/C=C(\C)CCC=C(C)C [NCGC00181323-02],< 4.70
2,CCCCCCCCCCCCCCCC(=O)OC/C=C(C)/C=C/C=C(C)/C=C/C1=C(C)CCCC1(C)C [NCGC00095056-04],< 4.70
3,CC(=O)NC(=O)c1ccccc1O [NCGC00160362-02],< 4.70

# Tested on: Colo320
# Assay: cells
# Format: cell-based
# Settings: assay number 27; basal
row,Structure (SMILES),Basal_Viability ATP Colo 320 IC50/EC50
1,Cc1c(O)cc2c(c1C)O[C@](C)(CCC[C@H](C)CCC[C@H](C)CCCC(C)C)CC2 [NCGC00185764-03],> 20 µM

# Same assay, conditions: assay number 27; basal; read-out: Basal_Viability ATP Colo 320 summarized IC50
row,Structure (SMILES),pIC50
1,CC(C)=CCC/C(C)=C/CC/C(C)=C/CC/C=C(\C)CC/C=C(\C)CCC=C(C)C [NCGC00181323-02],< 4.70
2,CCCCCCCCCCCCCCCC(=O)OC/C=C(C)/C=C/C=C(C)/C=C/C1=C(C)CCCC1(C)C [NCGC00095056-04],< 4.70
3,CC(=O)NC(=O)c1ccccc1O [NCGC00160362-02],< 4.70

# Same assay, conditions: assay number 27; concentration response
row,Structure (SMILES),Basal_Viability ATP Colo 320 IC50/EC50
1,CCCCCCCCCCCCCCCCCC[N+](C)(C)CCC[Si](OC)(OC)OC.[Cl-] [NCGC00166112-02],> 20 µM

# Tested on: HT-29
# Assay: cells
# Format: cell-based
# Settings: assay number 28; basal
row,Structure (SMILES),Basal_Viability ATP HT-29 IC50/EC50
1,Cc1c(O)cc2c(c1C)O[C@](C)(CCC[C@H](C)CCC[C@H](C)CCCC(C)C)CC2 [NCGC00185764-03],> 20 µM

# Same assay, conditions: assay number 28; basal; read-out: Basal_Viability ATP HT-29 summarized IC50
row,Structure (SMILES),pIC50
1,CC(C)=CCC/C(C)=C/CC/C(C)=C/CC/C=C(\C)CC/C=C(\C)CCC=C(C)C [NCGC00181323-02],< 4.70
2,CCCCCCCCCCCCCCCC(=O)OC/C=C(C)/C=C/C=C(C)/C=C/C1=C(C)CCCC1(C)C [NCGC00095056-04],< 4.70
3,CC(=O)NC(=O)c1ccccc1O [NCGC00160362-02],< 4.70

# Same assay, conditions: assay number 28; concentration response
row,Structure (SMILES),Basal_Viability ATP HT-29 IC50/EC50
1,CCCCCCCCCCCCCCCCCC[N+](C)(C)CCC[Si](OC)(OC)OC.[Cl-] [NCGC00166112-02],> 20 µM

# Tested on: RKO
# Assay: cells
# Format: cell-based
# Settings: assay number 29; basal
row,Structure (SMILES),Basal_Viability ATP RKO IC50/EC50
1,Cc1c(O)cc2c(c1C)O[C@](C)(CCC[C@H](C)CCC[C@H](C)CCCC(C)C)CC2 [NCGC00185764-03],> 20 µM

# Same assay, conditions: assay number 29; basal; read-out: Basal_Viability ATP RKO summarized IC50
row,Structure (SMILES),pIC50
1,CC(C)=CCC/C(C)=C/CC/C(C)=C/CC/C=C(\C)CC/C=C(\C)CCC=C(C)C [NCGC00181323-02],< 4.70
2,CCCCCCCCCCCCCCCC(=O)OC/C=C(C)/C=C/C=C(C)/C=C/C1=C(C)CCCC1(C)C [NCGC00095056-04],< 4.70
3,CC(=O)NC(=O)c1ccccc1O [NCGC00160362-02],< 4.70

# Same assay, conditions: assay number 29; concentration response
row,Structure (SMILES),Basal_Viability ATP RKO IC50/EC50
1,CCCCCCCCCCCCCCCCCC[N+](C)(C)CCC[Si](OC)(OC)OC.[Cl-] [NCGC00166112-02],> 20 µM

# Tested on: SNU-C1
# Assay: cells
# Format: cell-based
# Settings: assay number 30; basal
row,Structure (SMILES),Basal_Viability ATP SNU-C1 IC50/EC50
1,Cc1c(O)cc2c(c1C)O[C@](C)(CCC[C@H](C)CCC[C@H](C)CCCC(C)C)CC2 [NCGC00185764-03],> 20 µM

# Same assay, conditions: assay number 30; basal; read-out: Basal_Viability ATP SNU-C1 summarized IC50
row,Structure (SMILES),pIC50
1,CC(C)=CCC/C(C)=C/CC/C(C)=C/CC/C=C(\C)CC/C=C(\C)CCC=C(C)C [NCGC00181323-02],< 4.70
2,CCCCCCCCCCCCCCCC(=O)OC/C=C(C)/C=C/C=C(C)/C=C/C1=C(C)CCCC1(C)C [NCGC00095056-04],< 4.70
3,CC(=O)NC(=O)c1ccccc1O [NCGC00160362-02],< 4.70

# Same assay, conditions: assay number 30; concentration response
row,Structure (SMILES),Basal_Viability ATP SNU-C1 IC50/EC50
1,CCCCCCCCCCCCCCCCCC[N+](C)(C)CCC[Si](OC)(OC)OC.[Cl-] [NCGC00166112-02],> 20 µM

# Tested on: ECFC/ADSC co-culture cell nuclei number
# Assay: not given
# Settings: not given
row,Structure (SMILES),VEGF_ADSC\ECFC Angio Hoechst NucArea IC50/EC50
1,CCCCCCCCCCCCCCCCCC[N+](C)(C)CCC[Si](OC)(OC)OC.[Cl-] [NCGC00166112-02],> 10 µM
2,Cc1c(O)cc2c(c1C)O[C@](C)(CCC[C@H](C)CCC[C@H](C)CCCC(C)C)CC2 [NCGC00185764-03],> 10 µM

# Same assay, conditions: read-out: VEGF_ADSC\ECFC Angio Hoechst NucArea summarized IC50
row,Structure (SMILES),pIC50
1,CC(C)=CCC/C(C)=C/CC/C(C)=C/CC/C=C(\C)CC/C=C(\C)CCC=C(C)C [NCGC00181323-02],< 5.00
2,CCCCCCCCCCCCCCCC(=O)OC/C=C(C)/C=C/C=C(C)/C=C/C1=C(C)CCCC1(C)C [NCGC00095056-04],< 5.00
3,CC(=O)NC(=O)c1ccccc1O [NCGC00160362-02],< 5.00

# From publication PMC4503722, “Novel Phenotypic Outcomes Identified for a Public Collection of Approved Drugs from a Publicly Accessible Panel of Assays” (PLoS ONE, 2015)
